In ChEMBL document CHEMBL1201862, “PubChem BioAssay data set” (2004):
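Tested at 5 concentrations; 48 h exposure; 96-well plates; endpoints linearly interpolated, else capped at highest concentration. GI50 marks 50% less growth.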 The source made the active and inactive calls. Cut-off read from the data, not from the text of the source: active = GI50 up to about 1.1 µM and inactive = higher.

Columns and labels:
Experiment in all cases: growth of human tumour cells (NCI), 48 h
EKVX = tested on: EKVX
CCRF-CEM = tested on: CCRF-CEM
HOP-92 = tested on: HOP-92
NCI-H522 = tested on: NCI-H522
Malme-3M = tested on: Malme-3M
RXF 393 = tested on: RXF 393
DLD-1 = tested on: DLD-1
SK-MEL-28 = tested on: SK-MEL-28
UACC-257 = tested on: UACC-257
DMS-273 = tested on: DMS-273
SNB-75 = tested on: SNB-75
U-251 = tested on: U-251
IGROV-1 = tested on: IGROV-1
HT-29 = tested on: HT-29
LXFL 529 = tested on: LXFL 529
RPMI-8226 = tested on: RPMI-8226
SF-295 = tested on: SF-295
A498 = tested on: A498

Measured: GI50

O=C(O)C(C(=O)C(=O)C(C(=O)O)c1ccc(Cl)cc1)c1ccc(Cl)cc1 (centres undefined)
inactive: EKVX 3.27 µM | CCRF-CEM 2.34 µM | HOP-92 3.11 µM | NCI-H522 1.88 µM | Malme-3M 2.5 µM | RXF 393 3.92 µM | DLD-1 3.52 µM | SK-MEL-28 4.54 µM | UACC-257 2.75 µM | DMS-273 3.64 µM | SNB-75 3.32 µM | U-251 3.22 µM | IGROV-1 3.23 µM | HT-29 3.72 µM | LXFL 529 2.52 µM | RPMI-8226 2.13 µM | SF-295 8.65 µM | A498 4.76 µM

CCCCCCCCCCCCCC(=O)CC(=O)c1c(O)cccc1O
inactive: EKVX 30.6 µM | CCRF-CEM 21.1 µM | HOP-92 22.4 µM | NCI-H522 22.7 µM | Malme-3M 28.8 µM | RXF 393 > 100 µM | DLD-1 41.6 µM | SK-MEL-28 > 100 µM | UACC-257 32.4 µM | DMS-273 22.1 µM | SNB-75 39.5 µM | U-251 35.6 µM | IGROV-1 48 µM | HT-29 27.2 µM | LXFL 529 35.2 µM | RPMI-8226 25.5 µM | SF-295 42.4 µM | A498 > 100 µM

O=C(Cn1cc(I)c(C(=O)NCC(O)CO)n1)NCC(O)CO (centres undefined)
inactive: EKVX > 100 µM | CCRF-CEM > 100 µM | HOP-92 > 100 µM | NCI-H522 > 100 µM | Malme-3M > 100 µM | RXF 393 > 100 µM | DLD-1 > 100 µM | SK-MEL-28 > 100 µM | UACC-257 > 100 µM | DMS-273 > 100 µM | SNB-75 > 100 µM | U-251 > 100 µM | IGROV-1 > 100 µM | HT-29 > 100 µM | LXFL 529 > 100 µM | RPMI-8226 > 100 µM | SF-295 > 100 µM | A498 > 100 µM
